# Laboratory results reported in PubChem BioAssay (NCI).
#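 Dose response: 5 concentrations. Exposure: 48 h. Format: 96-well plates. Endpoint: linear interpolation; highest concentration if not reached. Here, GI50 denotes the concentration required for 50% inhibition of growth. TGI is the concentration that stops growth completely.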
# What was measured:
# Assay in all cases: DTP human tumour cell line panel, 48 h
# [1] = system: HCT-116 colon
# [2] = system: RPMI-8226 leukemia
# [3] = system: SNB-75 CNS
# [4] = system: LOX IMVI melanoma
# [5] = system: SK-MEL-2 melanoma
# [6] = system: NCI-H226 lung
# [7] = system: SK-MEL-5 melanoma
# [8] = system: SNB-19 CNS
# [9] = system: CCRF-CEM leukemia
# [10] = system: MOLT-4 leukemia
# [11] = system: U251 CNS
# [12] = system: DU-145 prostate
# [13] = system: M14 melanoma
# [14] = system: A498 renal
# [15] = system: A549 NSCLC
# [16] = system: SF-268 CNS
# [17] = system: BT-549 breast
# [18] = system: KM12 colon
# [19] = system: SW-620 colon
# [20] = system: T-47D breast
# [21] = system: SK-MEL-28 melanoma
# [22] = system: HL-60(TB) leukemia
# [23] = system: SN12C renal
# [24] = system: HOP-92 NSCLC
# [25] = system: K-562 leukemia
# [26] = system: 786-0 renal
# [27] = system: SF-295 CNS
# [28] = system: NCI-H23 lung
# [29] = system: HCC-2998 colon
# [30] = system: ACHN renal
# [31] = system: HOP-62 NSCLC
# [32] = system: HT29 colon
# [33] = system: IGROV1 ovarian
# [34] = system: TK-10 renal
# [35] = system: NCI-H522 lung
# [36] = system: NCI-H460 lung
# [37] = system: HCT-15 colon
# [38] = system: CAKI-1 renal
# [39] = system: NCI/ADR-RES ovarian
# [40] = system: UACC-62 melanoma
# [41] = system: RXF 393 renal
# [42] = system: MDA-MB-435
# [43] = system: OVCAR-5 ovarian
# [44] = system: SK-OV-3 ovarian
# [45] = system: SR leukemia
# [46] = system: SF-539 CNS
# [47] = system: COLO 205 colon
# [48] = system: OVCAR-4 ovarian
# [49] = system: MALME-3M melanoma
# [50] = system: UO-31 renal
# [51] = system: EKVX NSCLC
# [52] = system: MCF7 breast
# [53] = system: HS 578T breast
# [54] = system: PC-3 prostate
# [55] = system: UACC-257 melanoma
# [56] = system: MDA-MB-231 breast
# [57] = system: OVCAR-8 ovarian
structure (smiles),measurement,setting,value
COC(=O)C[Se]C(=O)Cc1c(C)n(C(=O)c2ccc(Cl)cc2)c2ccc(OC)cc12,GI50,[1],1800 nM
same,TGI,[1],4.21 µM
same,GI50,[2],3.36 µM
same,TGI,[2],22.9 µM
same,GI50,[3],1800 nM
same,TGI,[3],4.17 µM
same,GI50,[4],1810 nM
same,TGI,[4],3.79 µM
same,GI50,[5],2440 nM
same,TGI,[5],7.79 µM
same,GI50,[6],2030 nM
same,TGI,[6],6.53 µM
same,GI50,[7],1830 nM
same,TGI,[7],3.42 µM
same,GI50,[8],3.32 µM
same,TGI,[8],12.4 µM
same,GI50,[9],3.04 µM
same,TGI,[9],16.8 µM
same,GI50,[10],5.29 µM
same,TGI,[10],90.1 µM
same,GI50,[11],2380 nM
same,TGI,[11],5.8 µM
same,GI50,[12],2720 nM
same,TGI,[12],8.01 µM
same,GI50,[13],1640 nM
same,TGI,[13],4.91 µM
same,GI50,[14],2430 nM
same,TGI,[14],6.36 µM
same,GI50,[15],1960 nM
same,TGI,[15],4.63 µM
same,GI50,[16],3.18 µM
same,TGI,[16],12.3 µM
same,GI50,[17],1910 nM
same,TGI,[17],4.21 µM
same,GI50,[18],3.06 µM
same,TGI,[18],12.6 µM
same,GI50,[19],2030 nM
same,TGI,[19],4.39 µM
same,GI50,[20],7.32 µM
same,TGI,[20],38 µM
same,GI50,[21],3.26 µM
same,TGI,[21],12 µM
same,GI50,[22],2900 nM
same,TGI,[22],19.7 µM
same,GI50,[23],3.09 µM
same,TGI,[23],10.9 µM
same,GI50,[24],1980 nM
same,TGI,[24],4.27 µM
same,GI50,[25],5.3 µM
same,TGI,[25],> 100 µM
same,GI50,[26],2640 nM
same,TGI,[26],6.58 µM
same,GI50,[27],2210 nM
same,TGI,[27],4.92 µM
same,GI50,[28],2410 nM
same,TGI,[28],6.41 µM
same,GI50,[29],4.96 µM
same,TGI,[29],16.9 µM
same,GI50,[30],3.36 µM
same,TGI,[30],10.2 µM
same,GI50,[31],1740 nM
same,TGI,[31],4.14 µM
same,GI50,[32],2840 nM
same,TGI,[32],8.17 µM
same,GI50,[33],2100 nM
same,TGI,[33],4.91 µM
same,GI50,[34],3.72 µM
same,TGI,[34],18.2 µM
same,GI50,[35],9.61 µM
same,TGI,[35],28.8 µM
same,GI50,[36],2620 nM
same,TGI,[36],8.34 µM
same,GI50,[37],2200 nM
same,TGI,[37],6.03 µM
same,GI50,[38],2630 nM
same,TGI,[38],6.85 µM
same,GI50,[39],2410 nM
same,TGI,[39],6.92 µM
same,GI50,[40],2850 nM
same,TGI,[40],14 µM
same,GI50,[41],1730 nM
same,TGI,[41],5.28 µM
same,GI50,[42],1750 nM
same,TGI,[42],3.43 µM
same,GI50,[43],2210 nM
same,TGI,[43],6 µM
same,GI50,[44],5.57 µM
same,TGI,[44],19.2 µM
same,GI50,[45],3.74 µM
same,TGI,[45],> 100 µM
same,GI50,[46],2700 nM
same,TGI,[46],7.69 µM
same,GI50,[47],1830 nM
same,TGI,[47],4.4 µM
same,GI50,[48],2270 nM
same,TGI,[48],8.1 µM
same,GI50,[49],1810 nM
same,TGI,[49],5.31 µM
same,GI50,[50],1520 nM
same,TGI,[50],8.03 µM
same,GI50,[51],1710 nM
same,TGI,[51],4.26 µM
same,GI50,[52],2570 nM
same,TGI,[52],11.3 µM
same,GI50,[53],2330 nM
same,TGI,[53],8.84 µM
same,GI50,[54],3.91 µM
same,TGI,[54],15.5 µM
same,GI50,[55],2170 nM
same,TGI,[55],7.37 µM
same,GI50,[56],2270 nM
same,TGI,[56],5.89 µM
same,GI50,[57],2270 nM
same,TGI,[57],6.22 µM
